A short description of the data set: Plasma PK of brensocatib, BID vs QD oral dosing, C57BL/6 mice. The format is in vivo. The settings on record: both sexes; for AUC(0-t): first 24 h. The procedure: A dose frequency study was performed in male and female mice (C57BL/6 & BALB/c) and in male and female rats (Sprague Dawley & Wistar) investigating twice daily (BID) versus once daily (QD) brensocatib administration.
Briefly, animals were weighed and randomized into different treatment groups. In total, three different dosing levels of brensocatib were tested in each species and strain; each QD dosing level was equivalent to 1.5-times the matching daily BID dose. For BID dosing, the second daily dose was administered 8-h post the morning dose. C57BL/6 mice were dosed either BID or QD for 7 consecutive days at 0/0, 0.5/0.75, 2/3, and 20/30 mg/kg/day (BID/QD). BALB/c mice were dosed for 7 consecutive days at 0/0, 0.2/0.3, 2/3, and 20/30 mg/kg/day (BID/QD). SD rats were dosed for 9 consecutive days at 0/0, 0.2/0.3, 2/3, and 20/30 mg/kg/day (BID/QD). Wistar rats were dosed for 7 consecutive days at 0/0, 0.2/0.3, 2/3, and 20/30 mg/kg/day (BID/QD).
For sparse PK analysis via LC-MS/MS, plasma was collected from animals during the first 24 h of dosing at prescribed timepoints. The timepoints included 1, 3, 8, and 24 h post initial dose for QD groups, and 1, 3, 8, 9, 11, and 24 h post initial dose for BID groups. Note that the 8- and 24-h plasma samples were prior to the afternoon dose for BID groups and prior to the second day dose for all groups, respectively. See section Quantification of Plasma Brensocatib Concentrations for details.
Blood was collected via the tail-vein technique and centrifuged to separate and collect the plasma. The resulting plasma samples were stored at −20°C or lower until LC-MS/MS analysis.
The plasma concentration of brensocatib was quantified by liquid chromatography, tandem mass spectrometry (LC-MS/MS), a Sciex API6500 mass spectrometer (SCIEX, Framingham, MA). Two brensocatib stock solutions were prepared, one for the preparation of the 8-point standard (STD) curve spiking solutions and the other for the preparation of the quantitative control spiking solutions (QCs) at three levels. The STD curve and QCs were prepared by 2% spiking from the spiking solutions into mouse or rat plasma. The samples were extracted using a protein precipitation method, where 10 µL of sample was mixed with 100 µL of internal standard working solution (100 ng/mL ^6C13-brensocatib in methanol), vortexed for 5 s, and centrifuged at 21,130 × g at 4°C for 15 min. The supernatant was mixed with an equal volume of water and 10 μL was injected into a Phenomenex Kinetex Biphenyl column (3.0 mm × 50 mm; 2.6 μm; 65°C; 0.8 mL/min) with an elution gradient consisting of mobile phase A (10 mM ammonium formate) and mobile phase B (methanol) over 2 min from 5% to 95% B. The mass spectrometer was equipped with an atmospheric-pressure chemical ionization source operating in positive mode.
Individual plasma concentrations were plotted and the area under the curve (AUC) was calculated using the trapezoid method. The elimination rate constant (k e ) was calculated as the negative natural log of the plasma concentration over time (Eq. 1) starting at the max concentration (C max) after the most recent dose to the last measurable plasma concentration between doses. The calculated k e was used to define the half-life (t 1/2 ) based on Eq. 2; where 0.693 is the natural log of 2 and assumes a first-order reaction. ke=−ln∆C/∆t (1) t1/2=0.693/ke (2)

Where two headings read alike, the source gives them in different places.

As for `Cn1c(=O)oc2ccc(-c3ccc(C[C@@H](C#N)NC(=O)[C@@H]4CNCCCO4)cc3)cc21` [brensocatib], the half-life is, setting by setting: (C57BL/6, BALB/c, mouse, oral, mice (both strains), across BID and QD regimens, sparse PK, read-out: half-life (overall) (converted)) approximately 2.5 h; (C57BL/6, mouse, po, 0.5 mg/kg/day, C57BL/6 mice, oral BID, 0.5 mg/kg/day, evening dose, read-out: t1/2, PM dose (converted)) 0.63 ± 0.01 h; (C57BL/6, mouse, po, 0.5 mg/kg/day, C57BL/6 mice, oral BID, 0.5 mg/kg/day, morning dose, read-out: t1/2, AM dose (converted)) 0.71 ± 0.23 h; (C57BL/6, mouse, po, 0.75 mg/kg/day, C57BL/6 mice, oral QD, 0.75 mg/kg/day, read-out: t1/2, AM dose (converted)) 9.62 ± 0.95 h; (C57BL/6, mouse, po, 2 mg/kg/day, C57BL/6 mice, oral BID, 2 mg/kg/day, evening dose, read-out: t1/2, PM dose (converted)) 2.35 ± 0.35 h; (C57BL/6, mouse, po, 2 mg/kg/day, C57BL/6 mice, oral BID, 2 mg/kg/day, morning dose, read-out: t1/2, AM dose (converted)) 2.07 ± 0.42 h. The half-life is, setting by setting: (C57BL/6, mouse, po, 3 mg/kg/day, C57BL/6 mice, oral QD, 3 mg/kg/day, read-out: t1/2, AM dose (converted)) 6.38 ± 0.56 h; (C57BL/6, mouse, po, 20 mg/kg/day, C57BL/6 mice, oral BID, 20 mg/kg/day, evening dose, read-out: t1/2, PM dose (converted)) 2.36 ± 0.05 h; (C57BL/6, mouse, po, 20 mg/kg/day, C57BL/6 mice, oral BID, 20 mg/kg/day, morning dose, read-out: t1/2, AM dose (converted)) 2.41 ± 0.42 h; (C57BL/6, mouse, po, 30 mg/kg/day, C57BL/6 mice, oral QD, 30 mg/kg/day, read-out: t1/2, AM dose (converted)) 3.01 ± 0.18 h. Also, the AUC(0-t) reads like this: (mouse, C57BL/6 mice, oral BID, 0.5 mg/kg/day, read-out: AUC0–24h) 294 ± 49 ng·h/mL; (mouse, C57BL/6 mice, oral BID, 0.5 mg/kg/day, read-out: AUC(0–24)) 0.7 ± 0.12 µM·h; (mouse, C57BL/6 mice, oral BID, 2 mg/kg/day, read-out: AUC0–24h) 2010 ± 154 ng·h/mL; (mouse, C57BL/6 mice, oral BID, 2 mg/kg/day, read-out: AUC(0–24)) 4.79 ± 0.37 µM·h; (mouse, C57BL/6 mice, oral BID, 20 mg/kg/day, read-out: AUC0–24h) 15900 ng·h/mL; (mouse, C57BL/6 mice, oral BID, 20 mg/kg/day, read-out: AUC(0–24)) 37.7 ± 8.33 µM·h. Moreover, the AUC(0-t) (mouse, C57BL/6 mice, oral QD, 0.75 mg/kg/day, read-out: AUC0–24h) worked out at 735 ± 108 ng·h/mL; the AUC(0-t) (mouse, C57BL/6 mice, oral QD, 0.75 mg/kg/day, read-out: AUC(0–24)) came out at 1.75 ± 0.26 µM·h; the AUC(0-t) (mouse, C57BL/6 mice, oral QD, 3 mg/kg/day, read-out: AUC0–24h) was found to be 2840 ± 302 ng·h/mL; the AUC(0-t) (mouse, C57BL/6 mice, oral QD, 3 mg/kg/day, read-out: AUC(0–24)) was determined as 6.76 ± 0.72 µM·h; the AUC(0-t) (mouse, C57BL/6 mice, oral QD, 30 mg/kg/day, read-out: AUC0–24h) came out at 52600 ng·h/mL; the AUC(0-t) (mouse, C57BL/6 mice, oral QD, 30 mg/kg/day, read-out: AUC(0–24)) was determined as 125 ± 16 µM·h.

The values above are taken from publication PMC10394516, “The pharmacokinetic profile of brensocatib and its effect on pharmacodynamic biomarkers including NE, PR3, and CatG in various rodent species” (Frontiers in Pharmacology, 2023).
